{
  "source": "patent US20130005802A1",
  "about": "“TREATMENT OF WNT/FRIZZLED-RELATED DISEASES” (priority 2009, published 2013)",
  "key": {"Dvl-2": {"system": "Dvl-2", "experiment": "Immunohistochemistry of Dvl-2 in treated tumors", "format": "in vivo, NOD/SCID mice", "conditions": "200 mg/kg, 2 or 3 weeks", "description": "Paraffin-embedded specimens were cut into 4 μm-thick of sequential sections. After dewaxing in xylene and rehydrating stepwise in ethanol, sections were subjected to heat-induced antigen retrieval. Endogenous peroxidase activity was blocked with 3% H2O2, and non-specific binding was blocked with non-immune horse sera. Sections were then incubated with primary antibodies overnight at 4C. Anti-β-catenin (sc-65483, Santa Cruz Biotechnology, Inc., Santa Cruz, Calif.) and anti-Dvl-2 (sc-8026, Santa Cruz Biotechnology, Inc., Santa Cruz, Calif.) monoclonal antibodies were used at (1:50) dilution. After rinsing the sections were incubated with the biotinylated secondary antibody (1:200 dilution; Dakopatts, Copenhagen, Denmark) for 30 min at room temperature and then with the avidin-biotin peroxidase complex from the Vector Elite ABC kit (Vector Laboratories, Burlingame, Calif.) according to the manufacturer's instructions. Visualization was achieved using 3,3′-diaminobenzidine tetrahydrochloride and H2O2. Specimens were counterstained with hematoxylin.\nNOD/SCID mice were implanted with colorectal cancer explants or cell lines. […] Tumors were excised and fixed with 10% neutralized, buffered formalin. Paraffin-embedded specimens were cut into 4 μm-thick of sequential sections. After dewaxing and rehydration, heat-induced antigen retrieval was performed. […]"}, "β-catenin": {"system": "β-catenin", "experiment": "Immunoblot of Wnt3A-stimulated β-catenin stabilization in U2OS cells", "format": "cell-based", "from_the_text": "After treatment, cytosolic fraction as well as cellular membrane were isolated as described (Mikels, A. J., et al. PLoS Biol 2006, 4, e115, incorporated herein by reference in its entirety). Immunoblots using β-catenin or Dishevelled-2 antibody were used to detect the respective protein levels in cytosol or on membrane, with β-actin immunoblots used for loading controls.\nThe accumulation of cytosolic β-catenin is a measure of canonical Wnt signaling (Mikels, A. J., and Nusse, R. PLoS Biol 2006, 4, e115, incorporated herein by reference)."}, "CRC explants": {"system": "CRC explants", "experiment": "MTT assay, CRC explants", "format": "cell-based", "conditions": "72 hr", "description": "AsPC-1 tumor cells were cultured with T cells at a 1:5 ratio for 7 days in the presence of MEDI-565 or Cont BiTE (100 ng/mL). On day 7, floating cells were discarded and only adherent AsPC-1 cells were harvested with 0.05% trypsin/EDTA and washed with PBS three times. 1×10^4 AsPC-1 tumor cells were added to each well of 96 well flat bottom plates in 200 μL of complete RPMI1640 medium. The cells were allowed to adhere to the plates overnight at 37° C. (day 0) and were further incubated for 1, 2, 4 or 7 days. 20 μL of 10×MTT (3-[4,5-dimethylthiazol-2-yl]-2,5-diphenyl-tetrazolium bromide, 5 mg/mL) solution was added to each well, and incubated at 37° C. for 2 hr. The adherent cells were lysed with 150 μL of dimethyl sulfoxide (DMSO) and the optical density (OD) at 550 nm was measured.\nThe cells were allowed to adhere to the plates overnight at 37° C. (day 0). […] Then 20 μL of 10×MTT solution was added to each well and incubated at 37° C. for 2 hr. The adherent cells were lysed with 150 μL of DMSO, and then optical density (OD) at 562 nm was measured. DMSO or culture medium was used as a control.\nAn MTT assay was performed after 72 hr incubation. After cell lysis with DMSO, the optical density (OD) at 562 nm was measured."}, "HCT116 cells": {"system": "HCT116 cells", "experiment": "Flow-based cytotoxicity assay (annexin V), HCT116", "format": "cell-based", "conditions": "3 days, 0.2-20 μM", "description": "(§1) After 3 days incubation, all cells were harvested with 0.05% trypsin/EDTA and spun down by centrifugation. Cells were labeled with biotin-conjugated Annexin V, and then stained with 7-AAD and Streptavidin-APC. Samples were acquired by FACSCalibur machine (BD Bioscience) and analyzed with CellQuest software. Cells were analyzed for expression of Annexin V as a marker of apoptosis.\n(§2) Annexin V may be used as a marker for apoptosis and other forms of cell death. […] After 3 days of incubation, all cells were harvested with 0.05% trypsin/EDTA, labeled with biotin-conjugated Annexin V, and then stained with 7-AAD and streptavidin-APC. Samples were acquired by FACSCalibur, and percentages of annexin V-positive cells were analyzed and plotted as shown in FIG. 11. Cells were analyzed for expression of Annexin V as a marker of apoptosis."}, "[1]": {"system": "LEF/TCF transcription factor reporter (TOPFlash)", "experiment": "TOPFlash reporter assay in HEK293 cells", "format": "cell-based", "conditions": "Homo sapiens", "description": "To obtain a Frizzled1-GFP stable cell line (Fzd1GFP-U2OS), U2OS cells were transfected with pCS2ratFrizzled1-GFP and pLKO.1 (10:1 ratio by weight), using the Nucleofection transfection protocol from Amaxa, and stable receptor expressing clones were selected using 1.5 μg/mL puromycin in the culture medium. For generating TOPFlash stable cell lines, HEK293 cells were transfected with p8xTOPFlash, the Renilla luciferase plasmid, and pLKO.1 at a ratio by weight of 10:3:1 and stable clones selected using 1 μg/mL puromycin in the growth medium. pLKO.1 was used to confer puromycin resistance to the stable clones.\nFor the TOPFlash Luciferase assay the TOPFlash stable cells were seeded in 150 μL growing medium/well in 96-well plates at 100% confluency. Fifty microliters of conditioned medium containing the chemical compounds to be tested or DMSO were added to each well. After an 8 hr treatment, the cells were then washed once with PBS, and lysed with 80 μL MPER solution (Pierce, Rockford, Ill.). Thirty microliters of cell lysate were used for measuring luciferase activity in a 96-well plate reader (FluoStar Optima, BMG Labtech, Chicago, Ill.).\nLEF/TCF transcription factor reporter (TOPFlash) assay is a general readout for canonical Wnt signaling pathways. […] A Renila luciferase plasmid was also generated to serve as an internal control.\nThe average TOPFlash reporter activity of Wnt3A plus DMSO treatment was set as 100%, and the relative reporter activity of Wnt3A plus the indicated concentration of niclosmide was calculated and plotted.\nThe compounds shown in Table 2 were purchased from Sigma-Aldrich (St. Louis, Mo.) or Chembridge (San Diego, Calif.). The activity of each of the compounds as a negative modulator of the Wnt/Frizzled signaling pathway was examined using the Top-flash assay, as described above."}, "[2]": {"system": "peripheral blood mononuclear cells (PBMCs)", "format": "cell-based", "conditions": "human, 3 days", "description": "as §1, §2"}},
  "note": "Read-outs that look alike come from different tables or passages of the source.",
  "data": [
    {"compound": "O=C(Nc1ccc([N+](=O)[O-])cc1Cl)c1cc(Cl)ccc1O", "note": "[niclosamide]", "values": [
      {"measurement": "cytoplasmic expression of Dvl-2 in tumors vs control", "setting": "Dvl-2", "value": "decreased levels"},
      {"measurement": "Wnt3A-stimulated cytosolic β-catenin stabilization", "setting": "β-catenin; 7.5 μM, cytosol", "value": "prevented"},
      {"measurement": "membrane-bound β-catenin levels", "setting": "β-catenin; 7.5 μM, membrane", "value": "relatively unchanged"},
      {"measurement": "concentration range of the inhibitory effect on β-catenin stabilization", "setting": "β-catenin; immunoblot, n=3", "value": "1 to 7.5", "unit": "µM"},
      {"measurement": "IC50", "setting": "β-catenin; immunoblot, n=3, read-out: half maximal inhibition of Wnt3A signaling (β-catenin stabilization)", "value": "~1000", "unit": "nM"},
      {"measurement": "killing of CRC020 explant cells", "setting": "CRC explants; 5 μM", "value": "killed significantly"},
      {"measurement": "cytotoxicity (MTT, OD 562 nm) in 8 CRC explants", "setting": "CRC explants; 0.4, 2, 10 μM", "value": "cytotoxic effects"},
      {"measurement": "concentration with steep increase of annexin V-positive cells", "setting": "HCT116 cells", "value": 0.2, "unit": "µM"},
      {"measurement": "IC50", "setting": "[1]; Wnt3A conditioned medium, read-out: IC50 of inhibition of Wnt3A stimulated TOPFlash reporter activity", "value": "500 ± 50", "unit": "nM"},
      {"measurement": "IC50", "setting": "[1]; read-out: TopFlash assay: IC50", "value": "< 1000", "unit": "nM"},
      {"measurement": "doses at which apoptosis was shown (annexin V)", "setting": "[2]", "value": "10 to 20", "unit": "µM"}
    ]}
  ]
}
